Test results: patent US7432403B2, “Cyclic palladium compounds having coordinated thereto bis (diphenylphosphine) ferrocene ligands which inhibit the activity of proteins and enzymes and treatment of diseases and disorders associated therewith” (Fundação De Amparo À Pesquisa Do Estado de São Paulo, priority 2002, dated 2008)
Where two headings read alike, the source gives them in different places. One block for each compound: values may come before it.

Key:
[1] = Evaluation of acute toxicity, fixed dosage test, 14-day observation; format: in vivo, mice; conditions: one dose intraperitoneally
Experimental: The concentration of cyclopalladated compounds of the invention as used in this study is being determined from the realization of a fixed dosage test, in which the substance to be tested is given to mice under specific dosage, which is selected from previously fixed dosages, according to classifications from ruling institutions, for which the maximum concentration to be tested should not surpass 2000 mg/kg.
After drug administration, a 14-day observation period follows. The dosage under which signs of acute toxicity are observed, such as changes in hair, mucosa and skin, as well as the occurrence of diarrhea and convulsions, conjunctivitis, excitement or slow movements, is used to graduate or classify the tested material.
Assayed compounds are diluted in saline containing 10% DMSO and then 0.2 ml of that solution are intraperitoneally given to the animals. Therefore, groups of 10 animals (5 males and 5 females) were treated with various doses of the compounds being studied. The control animals received only saline with 10% DMSO. After the end of the treatment, the animals remained in observation for a period of 14 days.

[2] = test system: Ehrlich's ascitic tumor; test: Life extension of animals with Ehrlich's ascitic tumor; format: in vivo, mice; conditions: 1 mg/kg subcutaneously, four consecutive days, start 72 hours after inoculation
From the text: With the purpose to observe a possible protection of treated animals with the compounds of the invention, a life extension curve was drafted, considering animals with the Ehrlich's ascitic tumor, be them treated or not.
The Life Extension Curve of Kaplan-Meier was used to analyse the possibility of survival. The comparison between both groups (holders of tumor vs. holders of tumor/treated) was made by the Log-Rank method—non-parametrical procedures (Cox-Mantel). ANOVA variation analysis was used for the analysis of various groups. In case of significant difference, the Tukey's test was applied. In cases in which the number of samples between two groups was small, the Wilcoxon's non-parametrical test was used.
To develop the Ehrlich's ascitic tumor, mice are intraperitoneally inoculated with 0.1 ml of a suspension of tumor cells containing 10^6 cells, originating from the peritoneal cavity of holder mice. After taking out the ascitic liquid from the peritoneum of mice holding the tumor of Ehrlich, the number and viability of cells are determined by using trypan blue colorant in a Neubauer chamber.
With the purpose to observe possible protection of treated animals with the compounds [Pd2(C^2,N-S-dmpa)2(μ-dpp)Cl2] e [Pd2(C^2,N-S-dmpa)2(μ-dppf)(N3)2] (as per scheme C shown in generic structures), a life extension curve was made. […]

[3] = test system: HL60 cells; test: Morphological aspect of treated HL60 cells; format: cell-based; conditions: 72 hours
From the text: From the results obtained by experiments as illustrated by Example 11, we verified cytotoxic activity of the cyclopalladated compounds in both studied lines, with results obtained from the two compounds being similar (FIGS. 10 and 11). […] On the other hand, the morphological aspect of leukemic cells HL60 treated with cyclopalladated compounds is that of cells in scheduled cell death process or apoptosis, as illustrated by FIG. 12.

[4] = target: T1, ACE (Mus musculus, UniProt P09470); conditions: administration one hour after radiation; cited from earlier work
T1 construct: host or cells: mouse plasma, in vivo
T1 sequence (P09470 35-1312): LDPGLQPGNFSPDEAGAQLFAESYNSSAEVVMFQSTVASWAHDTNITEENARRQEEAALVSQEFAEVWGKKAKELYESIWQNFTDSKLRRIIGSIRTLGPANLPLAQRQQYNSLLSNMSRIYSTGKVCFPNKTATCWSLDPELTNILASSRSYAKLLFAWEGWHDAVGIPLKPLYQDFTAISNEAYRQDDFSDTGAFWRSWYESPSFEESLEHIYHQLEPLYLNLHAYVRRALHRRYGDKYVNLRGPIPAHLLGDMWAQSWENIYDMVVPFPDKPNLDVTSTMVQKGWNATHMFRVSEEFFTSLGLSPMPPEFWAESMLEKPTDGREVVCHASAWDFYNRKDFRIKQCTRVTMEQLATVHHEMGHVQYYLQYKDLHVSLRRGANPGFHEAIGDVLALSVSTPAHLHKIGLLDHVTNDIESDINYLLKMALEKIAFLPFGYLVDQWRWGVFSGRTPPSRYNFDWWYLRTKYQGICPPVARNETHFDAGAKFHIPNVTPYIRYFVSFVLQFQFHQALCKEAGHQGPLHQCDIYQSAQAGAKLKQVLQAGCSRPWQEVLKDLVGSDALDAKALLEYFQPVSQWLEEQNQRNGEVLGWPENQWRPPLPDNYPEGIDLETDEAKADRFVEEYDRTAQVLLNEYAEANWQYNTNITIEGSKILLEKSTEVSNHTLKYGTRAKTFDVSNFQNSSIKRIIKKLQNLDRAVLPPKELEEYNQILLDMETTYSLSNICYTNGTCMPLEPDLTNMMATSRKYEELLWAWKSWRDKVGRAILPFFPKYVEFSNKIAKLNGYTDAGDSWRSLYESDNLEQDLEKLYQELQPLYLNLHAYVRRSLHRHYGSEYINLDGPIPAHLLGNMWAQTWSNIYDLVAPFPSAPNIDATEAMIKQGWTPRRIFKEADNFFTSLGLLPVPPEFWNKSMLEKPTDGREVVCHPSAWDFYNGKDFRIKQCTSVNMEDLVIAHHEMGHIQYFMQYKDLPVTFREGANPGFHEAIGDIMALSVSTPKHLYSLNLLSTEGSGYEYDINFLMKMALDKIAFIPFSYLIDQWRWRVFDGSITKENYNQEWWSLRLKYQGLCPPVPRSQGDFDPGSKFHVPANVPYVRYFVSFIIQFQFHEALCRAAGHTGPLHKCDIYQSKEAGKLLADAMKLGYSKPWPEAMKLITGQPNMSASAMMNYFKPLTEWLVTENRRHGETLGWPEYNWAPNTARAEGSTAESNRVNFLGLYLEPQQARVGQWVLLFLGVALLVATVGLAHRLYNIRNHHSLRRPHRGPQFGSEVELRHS

[5] = target: T2, Cathepsin B (Homo sapiens, UniProt P07858); test: Cathepsin B endopeptidase activity, hydrolysis of fluorogenic substrate Z-Phe-Arg-MCA (spectrofluorimetry); format: biochemical; conditions: for Ki: pH 6.4, 37° C., substrate Z-Phe-Arg-MCA
T2 construct: purchased Calbiochem Co
Experimental: Cathepsin B and papain were supplied by the company Calbiochem Co. and the concentration of active enzymes was determined by titulation using the cysteine-protease inhibitor known as E-64. Cathepsin B and papain were packed at 4° C. within 50 mM in sodium acetate buffer (pH 5.0) containing 10 μM MMTS. The fluorogenic substrate amidomethylcoumaryl Z-Phe-Arg-MCA, tripsin and the irreversible papain inhibitor E-64 were supplied by Sigma.
The influence of the organometal compounds on the activity of endopeptidase cathepsin B was determined by spectrofluorimetry, using the fluorogenic substrate Z-Phe-Arg-MCA. This peptide is a good substrate for cathepsin B with kcat/Ks=4.5 10^5 M^−1.s^−1 and was chosen so to locate residues Phe and Arg in P2 and P1, respectively. The substrate covers the main linkage sites S2, S1 and S′1 with cysteine-proteases similar to papain (Turk, D. et al, Revised definition of substrate binding sites of papain-like cysteine proteases, J. Biol. Chem.; 1998, 379, 137-147).
The intensities of fluorescence signals were monitored by a thermostatic spectrofluorimetry Hitachi F-2000. Wavelength was calibrated at 380 nm for excitation and 440 nm for emission. The activation of the enzyme was made by incubation for five minutes at 37° C. in a buffer solution of 50 mM sodium phosphate (pH 6.4) containing NaCl 200 mM, EDTA 1 mM and DTT 2 mM. Measurements were taken in the same activation buffer of cathepsin B and kynetic standards were set up by taking the initial hydrolysis rate under various concentrations of the substrate in the presence or absence of different concentrations of organometal compounds. The results were analysed by non-linear regression by using the software GraFit 3.01 (Erithacus Software Ltd.).
The Kynetic model of Scheme 1 describes the effect of heparin over the hydrolysis of Z-Phe-Arg-MCA by cathepsin B:
In which S represents the substrate Z-Phe-Arg-MCA; I represents the cyclometal compound; E represents cathepsin B; KS represents the dissociation constant of the substrate; KI represents the apparent dissociation constant of the organometal; α is a disturbance standard of KS; and β is a disturbance standard of Vmax (kcat), with the standards being in accordance to the equation: […]
Data were treated according to Equation 1, by using non-linear regression and the values for the constants were calculated. […] The hydrolysis rate of the second order substrates was the same, kcat/Ks=4.5 10^5 M^−1s^−1, in the presence or absence of [Pd (C^2,N-(R+dmpa)(dppf)]N3.

Compound: C[C@H]1c2cccc[c]2[Pd-2]([Cl])([P+](c2ccccc2)(c2ccccc2)[c-]2cccc2)[N+]1(C)C.C[C@H]1c2cccc[c]2[Pd-2]([Cl])([P+](c2ccccc2)(c2ccccc2)[c-]2cccc2)[N+]1(C)C.[Fe+2] (stereo partly drawn) [4a, [Pd2(C^2,N-S-dmpa)2(μ-dppf)Cl2]]
Signs and symptoms ([1]; 500 mg/kg): Lack of acute toxicity signs

Compound: C[C@H]1c2cccc[c]2[Pd-2]([Cl])([P+](c2ccccc2)(c2ccccc2)[c-]2cccc2)[N+]1(C)C.[Fe+2].c1ccc(P(c2ccccc2)[c-]2cccc2)cc1 (stereo partly drawn) [[Pd(C^2,N-(S-dmpa)(dppf)Cl]]
life extension of animals holding the ascitic tumor of Ehrlich [2]: increased the life extension
morphological aspect of treated HL60 cells [3]: aspects of an apoptosis cell

Compound: NCCCC[C@H](N[C@@H](CCc1ccccc1)C(=O)O)C(=O)N1CCC[C@H]1C(=O)O [lisinopryl]
inhibition of murine plasma activity for ACE [4]: 100%

Compound: C[C@@H]1c2cccc[c]2[Pd-2]([Cl])([P+](c2ccccc2)(c2ccccc2)[c-]2cccc2)[N+]1(C)C.C[C@@H]1c2cccc[c]2[Pd-2]([Cl])([P+](c2ccccc2)(c2ccccc2)[c-]2cccc2)[N+]1(C)C.[Fe+2] (stereo partly drawn) [4b, [Pd2(C^2,N-R+ dmpa)2(μ-dppf)Cl2]]
Signs and symptoms ([1]; 10 mg/kg, listed as R(^+)dmpa Cl^− dppf (1:1), 10 mg/kg): Signs of conjunctivitis

inhibition of Cathepsin B [5]: 81%
product formation constant reduced to [5]: 36
reduction of kcat in the presence of the compound [5]: 5.6 times
α (disturbance standard of KS) [5]: 0.19±0.02
β (disturbance standard of Vmax, kcat) [5]: 0.18±0.02
β/α [5]: 1.1±0.1
increase of the affinity between Cathepsin B and the substrate Z-Phe-Arg-MCA ([5]; in the presence of the compound): 5.3 time
Ki ([5]; read-out: dissociation constant KH, compound linked to free Cathepsin B (E)): 12 ± 1 µM
Ki ([5]; read-out: dissociation constant αKH, compound linked to the enzyme-substrate (ES) complex): 2.4 ± 0.3 µM
Ks value in the presence of the organometal compound ([5]; reduced from 110±15 without compound): 21 ± 2 µM
Compound: [Pd(C^2,N-(R+dmpa)(dppf)]N3 [2a]
